Several values for one entry are separate records, joined by “and”; a condition that tells them apart may be missing. Equal entries are not always repeated.

The target of test [1] is T1, Xanthine oxidase (XOD), febuxostat binding domain (Bos taurus, UniProt P80457).
T1 construct: purchased Sigma-Aldrich Co., Ltd. (St. Louis, MO, USA)
The experiment in a line: Affinity ultrafiltration LC-MS (UF-LC-MS) screening, febuxostat-masked vs unmasked XOD. The conditions noted are these: peak area with vs without febuxostat preincubation of XOD; extract 2 mg/mL. As for the experimental part:
Based on the variation in the chromatogram with and without febuxostat binding in the XOD, the binding degree was used to evaluate the febuxostat competitive capacity of compounds in celery seeds. The binding degree (BD) was calculated as follows: BD(%)=Af−Ano_f/Af×100%
Af and Ano_f represent the peak area of compounds in the chromatogram with and without preincubation with febuxostat, respectively.
Identification of potential XOD inhibitors from celery seed extract was performed using UF–LC–MS according to a previous study with modification. To prepare the XOD interaction solution, 250 μL of XOD (0.5 U/mL) was incubated with 50 μL of febuxostat (the XOD inhibitor, 500 μg/mL in 10% DMSO-PBS, masked group) to mask the druggable binding domain of XOD or 10% DMSO-PBS (vehicle control, unmasked group) at 37 °C for 45 min. The extract (50 μL at 2 mg/mL in methanol) was then added to the interaction solution for a further 45 min. After incubation, the mixtures were transferred to a 10 kDa molecule weight cut-off ultrafiltration filter and centrifuged at 14,500 rpm for 20 min. The membrane was washed 3 times with 450 μL ddH2O to remove the unbound molecules. […] The elution solution was then ultrafiltered in the new filter units as described above. The final products in the bottom of the filter units were analyzed using a HPLC–MS system.

The target in a further test is T2, Xanthine oxidase (XOD) (Bos taurus, UniProt P80457).
T2 construct: purchased Sigma-Aldrich Co., Ltd. (St. Louis, MO, USA)
Kind of test: XOD activity assay (absorbance at 290 nm, xanthine substrate). The class given is biochemical. The conditions noted are these: XOD 0.02 U/mL, xanthine 0.48 mM, 37 °C, OD 290 nm; read-out: IC50 of XOD inhibition. As for the experimental part: The inhibitory effects of compounds were determined in the XOD activity assay according to a previous report with minor modifications. Celery seed extracts or the “hit” compounds from the UF–LC–MS screening assay were dissolved in PBS and prepared for a series of test solutions using 2-fold serial dilutions. Test solutions (50 μL) were mixed with XOD (50 μL at 0.02 U/mL) and incubated at 37 °C for 5 min. This was followed by the addition of XOD substrate xanthine (150 μL at 0.48 mM) and further incubation at 37 °C for 30 min. The optical density (OD) of each tube was then measured at 290 nm. Percent XOD inhibition was calculated using the following formula: %=1−A1−A2/A3−A4×100 where A1 was the absorbance of the production with the sample and XOD, A2 was the absorbance of the production with the sample, A3 was the absorbance of the production with PBS and XOD, and A4 was the absorbance of the production with PBS.

T1 sequence (P80457 whole entry, the tested form may be a part): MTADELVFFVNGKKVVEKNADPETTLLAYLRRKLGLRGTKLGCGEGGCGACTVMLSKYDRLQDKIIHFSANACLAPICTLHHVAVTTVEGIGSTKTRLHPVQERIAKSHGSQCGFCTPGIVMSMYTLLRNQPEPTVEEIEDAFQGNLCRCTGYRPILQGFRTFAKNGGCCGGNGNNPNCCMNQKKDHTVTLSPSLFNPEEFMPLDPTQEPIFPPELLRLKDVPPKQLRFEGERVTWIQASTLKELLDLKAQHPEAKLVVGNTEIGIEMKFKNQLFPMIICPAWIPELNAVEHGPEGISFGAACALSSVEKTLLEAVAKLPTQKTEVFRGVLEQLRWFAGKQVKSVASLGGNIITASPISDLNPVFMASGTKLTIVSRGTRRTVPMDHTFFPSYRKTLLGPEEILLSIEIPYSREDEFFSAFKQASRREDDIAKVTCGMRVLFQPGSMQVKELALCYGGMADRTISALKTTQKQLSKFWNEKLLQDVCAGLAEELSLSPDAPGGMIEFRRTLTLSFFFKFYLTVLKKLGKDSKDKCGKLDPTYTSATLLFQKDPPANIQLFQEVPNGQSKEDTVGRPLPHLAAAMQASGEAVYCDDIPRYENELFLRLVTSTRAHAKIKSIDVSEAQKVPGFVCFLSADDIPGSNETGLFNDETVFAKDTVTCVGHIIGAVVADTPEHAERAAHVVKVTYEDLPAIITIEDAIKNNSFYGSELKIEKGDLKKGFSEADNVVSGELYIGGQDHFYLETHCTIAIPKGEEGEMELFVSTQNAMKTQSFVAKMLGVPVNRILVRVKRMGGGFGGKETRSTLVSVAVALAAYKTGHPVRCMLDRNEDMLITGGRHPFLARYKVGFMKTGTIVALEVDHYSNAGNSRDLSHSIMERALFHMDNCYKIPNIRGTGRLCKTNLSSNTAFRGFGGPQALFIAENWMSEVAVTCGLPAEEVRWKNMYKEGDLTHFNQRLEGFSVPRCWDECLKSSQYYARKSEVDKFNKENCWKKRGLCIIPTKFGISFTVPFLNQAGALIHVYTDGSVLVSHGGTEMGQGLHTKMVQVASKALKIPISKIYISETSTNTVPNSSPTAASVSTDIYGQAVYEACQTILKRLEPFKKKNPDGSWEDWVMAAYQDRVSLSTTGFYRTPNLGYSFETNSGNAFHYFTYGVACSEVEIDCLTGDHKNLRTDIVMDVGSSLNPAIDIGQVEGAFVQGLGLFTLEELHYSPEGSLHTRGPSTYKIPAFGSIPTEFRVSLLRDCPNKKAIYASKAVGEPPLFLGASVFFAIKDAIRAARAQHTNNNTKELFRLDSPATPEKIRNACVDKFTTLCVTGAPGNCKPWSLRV
T2 sequence (P80457 whole entry): as the sequence (P80457 whole entry, the tested form may be a part) above

In the case of `O=C(O)CC(=O)OC[C@H]1O[C@@H](Oc2cc(O)c3c(=O)cc(-c4ccc(O)cc4)oc3c2)[C@H](O[C@@H]2OC[C@](O)(CO)[C@H]2O)[C@@H](O)[C@@H]1O` [Compound 19, 6″-Malonylapiin], the “binding degree (BD)” value in test [1] is given as 63.2%.
For `O=c1cc(-c2ccc(O)cc2)oc2cc(O)cc(O)c12` [Compound 24, Apigenin], the “binding degree (BD)” value in test [1] worked out at 95.5%. At Xanthine oxidase (XOD), the IC50 (as a rule, the point on the concentration scale where inhibition reaches its midpoint) was 93 µM and 92.6 µM.
With `C[C@@]1(O)CO[C@@H](O[C@H]2[C@H](Oc3cc(O)c4c(=O)cc(-c5ccc(O)c(O)c5)oc4c3)O[C@H](COC(=O)CC(=O)O)[C@@H](O)[C@@H]2O)[C@@H]1O` [Compound 14, Luteolin 7-O-malonyl-apiosylglucoside], the “binding degree (BD)” value in test [1] worked out at 93.6%.
`O=C(O)CC(=O)OC[C@H]1O[C@@H](Oc2cc(O)c3c(=O)cc(-c4ccc(O)c(O)c4)oc3c2)[C@H](O)[C@@H](O)[C@@H]1O` [Compound 15, Luteolin 7-O-6′-malonyl glucoside]: the “binding degree (BD)” value in test [1] came out at 99.0%. In addition, the IC50 on Xanthine oxidase (XOD) was determined as 2020 µM.
In the case of `COc1cc(-c2cc(=O)c3c(O)cc(O)cc3o2)ccc1O` [Compound 25, Chrysoeriol], the “binding degree (BD)” value in test [1] was found to be 96.7%.
For the molecule `O=c1cc(-c2ccc(O)c(O)c2)oc2cc(O[C@@H]3O[C@H](CO)[C@@H](O)[C@H](O)[C@H]3O[C@@H]3OC[C@](O)(CO)[C@H]3O)cc(O)c12` [Compound 9, Luteolin 7-O-apiosylglucoside], in test [1], the “binding degree (BD)” value came out at 89.1%. The IC50 on Xanthine oxidase (XOD) was determined as 3140 µM.
The like results for `O=c1cc(-c2ccc(O)c(O)c2)oc2cc(O[C@@H]3O[C@H](CO)[C@@H](O)[C@H](O)[C@H]3O)cc(O)c12` [Compound 10, Luteolin 7-O-glucoside] were, in that order, 95.9% and 976 µM.
In the case of `CCCC[C@H]1OC(=O)C2=C1CC[C@H](O)[C@H]2O` [Compound 11, Senkyunolide J], the “binding degree (BD)” value in test [1] was determined as 50.5%.
In the case of `COc1cc(-c2cc(=O)c3c(O)cc(OC4OC(COC(=O)CC(=O)O)C(O)C(O)C4OC4OCC(O)(CO)C4O)cc3o2)ccc1O` (stereo not drawn) [Compound 20, Chrysoeriol 7-O-6″-malonyl apiosylglucoside], in test [1], the “binding degree (BD)” value stood at 52.0%.
As to `O=c1cc(-c2ccc(O)c(O)c2)oc2cc(O)cc(O)c12` [Compound 21, Luteolin], in test [1], the “binding degree (BD)” value is on record as 97.8%. Also, at Xanthine oxidase (XOD), the IC50 came to 69.2 µM.

The record behind these values is publication PMC10458824, “Identification of Xanthine Oxidase Inhibitors from Celery Seeds Using Affinity Ultrafiltration–Liquid Chromatography–Mass Spectrometry” (Molecules, 2023).
